Here are results for 3 molecules from patent publication US11912705B2, “Cathinone derivatives, pharmaceutical formulations, and methods” (The Corporation of Mercer University, priority 2020, dated 2024).

One assay deals with T1, human M3R (Homo sapiens, UniProt P20309).
T1 construct: host or cells: HEK293 (CRL-1573, ATCC), transient
Nature of the assay: biochemical. In kind it is binding. The procedure: (§1) Radioligand Competition Binding: Radioligand competition binding assays were conducted using membranes collected from transiently transfected HEK293 cells (P<20 from a procured stock, CRL-1573, ATCC, Manassas, Va., USA) as previously described (Chen, Y., et al. Drug Test Anal 11, 990-998). Briefly, cells ˜90% confluent in 10 cm plates were transfected with 5 μg human M1R, M2R, M3R, M4R or […] cDNA (cDNA resource center, Bloomsburg, Pa., USA) using a lipid-based method (LipoD293 reagent, SignaGen Laboratories, Rockville, Md., USA). Membranes were collected by centrifugation about 48 hours later and stored at −80° C. until used. […] After a 90-minute incubation at room temperature on a shaker, contents from the plates were rapidly filtered through GF/B fiberglass filter mats, pre-soaked with ice cold 50 mM Tris buffer (pH 7.4), using a Microbeta Filtermat-96 cell harvester (Perkin Elmer, Waltham, Mass., USA). Approximately 200 mL of ice cold, 50 mM Tris buffer was then vacuumed through filter mats to wash away unbound radioligand. Filter mats were dried on a hot plate and soaked in Betaplate (Perkin Elmer, Waltham, Mass., USA) scintillation fluid in plastic bags. Bags were sealed and placed in cassettes. Radioactivity was measured in a Microbeta2 Microplate Counter (Perkin Elmer, Waltham, Mass., USA), and counts per minute corresponding to each well on the plates were recorded. For full dose-response competition binding assays, increasing half-log unit concentrations of five unsubstituted PSCs were tested at M2Rs and M1Rs, with the same procedures described above.
(§2) Curve Fitting and Statistical Analyses: All data were analyzed by GraphPad 8.3.0 (San Diego, Calif., USA). Ki values were determined from data fit to both one- and two-site models. […] EC50 and IC50 values from functional assays were determined from data fit to the log(agonist) vs. response (three parameters) or log(inhibitor) vs. response (three parameters) model, respectively. Kb values were calculated from IC50 values using the Cheng-Prusoff equation with modification (see, e.g., Leff, P., and Dougall, I. G. (1993) Trends Pharmacol Sci 14, 110-112): Kb=IC50/((2+([A]/[A50])nH)1/nH−1)

A further assay deals with T2, human M1R (Homo sapiens, UniProt P11229).
T2 construct: host or cells: HEK293 (CRL-1573, ATCC), transient
T2 sequence (P11229 1-460): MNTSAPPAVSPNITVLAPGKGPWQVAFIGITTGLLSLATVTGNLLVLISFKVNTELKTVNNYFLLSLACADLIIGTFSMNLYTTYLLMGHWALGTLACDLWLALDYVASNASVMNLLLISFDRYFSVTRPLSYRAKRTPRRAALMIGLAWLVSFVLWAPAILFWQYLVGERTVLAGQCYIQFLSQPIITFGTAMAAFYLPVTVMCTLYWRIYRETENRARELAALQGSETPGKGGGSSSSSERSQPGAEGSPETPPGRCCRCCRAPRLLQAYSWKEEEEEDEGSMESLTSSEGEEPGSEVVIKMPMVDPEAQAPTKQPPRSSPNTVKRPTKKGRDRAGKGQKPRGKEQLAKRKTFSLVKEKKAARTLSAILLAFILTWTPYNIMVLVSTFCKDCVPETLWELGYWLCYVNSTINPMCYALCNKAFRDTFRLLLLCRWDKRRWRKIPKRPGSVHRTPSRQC
The assay is described as follows: biochemical. It counts as binding. As to the method:
as §1, §2

Assay [1] relates to mice on the FVB background. The assay is described as follows: Open field locomotor activity in mice. It counts as in vivo. To be noted: 2.8 mg/kg, s.c., 20-min open field. As to the method:
Since functional inhibition of neurotransmitter transporters, particularly DAT, is classically known to cause psychomotor stimulation, the ability of Compound (1) to induce this effect in mice was assessed, directly comparing results to α-PHP, a pyrrolidine-substituted analog of Compound (1). Adult male and female mice on the FVB background were injected subcutaneously and then immediately placed inside of an open field chamber, where their activity was recorded automatically for 20-min by an overhead camera connected to a PC running EthoVision XT software. […] Data are means (±SEM).

In assay [2] the target is T3, Norepinephrine transporter (Homo sapiens, UniProt P23975).
T3 construct: Eurofins/Cerep (contract testing)
The assay is described as follows: Norepinephrine transporter uptake (h). It counts as cell-based. The procedure:
(§3) For antagonist assays, Kb affinity values were calculated from IC50 values using GraphPad Prism 9 (San Diego, Calif. USA).

The next assay concerns the target T4, human M5R (Homo sapiens, UniProt P08912).
T4 construct: host or cells: HEK293 (CRL-1573, ATCC), transient
T4 sequence (P08912 1-532): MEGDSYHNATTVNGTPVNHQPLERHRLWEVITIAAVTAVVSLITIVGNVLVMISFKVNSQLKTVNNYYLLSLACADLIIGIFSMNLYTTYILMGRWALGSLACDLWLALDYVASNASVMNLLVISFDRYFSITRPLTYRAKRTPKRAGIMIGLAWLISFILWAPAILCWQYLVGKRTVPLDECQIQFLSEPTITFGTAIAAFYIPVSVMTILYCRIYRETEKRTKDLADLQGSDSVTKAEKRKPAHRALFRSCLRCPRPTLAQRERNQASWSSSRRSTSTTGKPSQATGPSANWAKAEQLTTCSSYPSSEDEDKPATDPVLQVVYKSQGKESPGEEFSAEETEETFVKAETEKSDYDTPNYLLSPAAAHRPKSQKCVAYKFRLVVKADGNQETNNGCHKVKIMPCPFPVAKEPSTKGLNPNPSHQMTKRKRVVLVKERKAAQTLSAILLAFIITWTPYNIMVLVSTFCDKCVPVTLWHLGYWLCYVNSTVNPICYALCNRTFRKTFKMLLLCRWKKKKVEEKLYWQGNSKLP
The assay is described as follows: [3H]Scopolamine radioligand competition binding at M5R. As to the method:
as §1, §2

The next assay addresses T5, Dopamine transporter (h) (Homo sapiens, UniProt Q01959).
T5 construct: Eurofins/Cerep (contract testing)
The assay is described as follows: Dopamine transporter (h) (antagonist radioligand) competition binding. Conditions: for nH: Dopamine transporter (h) (antagonist radioligand). As to the method: (§4) Compounds (1) and (2) were tested at several concentrations for IC50 or EC50 determination at target receptors. […] For antagonist assays, Kb affinity values were calculated from IC50 values using GraphPad Prism 9 (San Diego, Calif. USA).

For assay [3], the target named is T6, Norepinephrine transporter (h) (Homo sapiens, UniProt P23975).
T6 construct: Eurofins/Cerep (contract testing)
The assay is described as follows: Norepinephrine transporter (h) (antagonist radioligand) competition binding. Conditions: for nH: Norepinephrine transporter (h) (antagonist radioligand). As to the method:
as §3

Another assay deals with T7, 5-HT transporter (h) (Homo sapiens, UniProt P31645).
T7 construct: Eurofins/Cerep (contract testing)
Nature of the assay: Serotonin transporter (antagonist radioligand) competition binding. Conditions: for Affinity (Ki) SERT: Eurofins/Cerep, N.B. denotes no binding at 100 μM. The procedure:
as §4

The mark [4] stands for this setting: human muscarinic M3 (N = 5), [3H]-N-methylscopolamine, read-out: Affinities, Ki ± SEM, nM M3.
Setting [5] is: human muscarinic M1 (N = 6), [3H]-N-methylscopolamine, read-out: Affinities, Ki ± SEM, nM M1.

Where two headings read alike, the source gives them in different places.

T6 sequence (P23975 whole entry): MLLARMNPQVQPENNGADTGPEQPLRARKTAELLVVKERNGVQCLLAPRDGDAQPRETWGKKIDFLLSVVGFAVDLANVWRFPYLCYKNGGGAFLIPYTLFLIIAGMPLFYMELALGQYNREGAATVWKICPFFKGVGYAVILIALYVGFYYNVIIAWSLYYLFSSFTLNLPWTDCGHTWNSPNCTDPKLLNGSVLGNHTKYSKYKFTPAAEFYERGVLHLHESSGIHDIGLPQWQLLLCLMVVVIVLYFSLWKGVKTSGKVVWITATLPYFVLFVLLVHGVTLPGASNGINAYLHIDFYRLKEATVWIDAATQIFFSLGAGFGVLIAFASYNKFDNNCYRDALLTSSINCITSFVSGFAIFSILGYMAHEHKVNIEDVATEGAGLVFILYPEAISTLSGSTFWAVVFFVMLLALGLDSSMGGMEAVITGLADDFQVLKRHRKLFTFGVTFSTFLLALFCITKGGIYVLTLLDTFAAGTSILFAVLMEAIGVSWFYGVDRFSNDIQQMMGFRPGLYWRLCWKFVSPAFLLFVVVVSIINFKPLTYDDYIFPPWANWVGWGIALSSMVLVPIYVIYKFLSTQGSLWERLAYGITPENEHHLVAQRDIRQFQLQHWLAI
T7 sequence (P31645 whole entry): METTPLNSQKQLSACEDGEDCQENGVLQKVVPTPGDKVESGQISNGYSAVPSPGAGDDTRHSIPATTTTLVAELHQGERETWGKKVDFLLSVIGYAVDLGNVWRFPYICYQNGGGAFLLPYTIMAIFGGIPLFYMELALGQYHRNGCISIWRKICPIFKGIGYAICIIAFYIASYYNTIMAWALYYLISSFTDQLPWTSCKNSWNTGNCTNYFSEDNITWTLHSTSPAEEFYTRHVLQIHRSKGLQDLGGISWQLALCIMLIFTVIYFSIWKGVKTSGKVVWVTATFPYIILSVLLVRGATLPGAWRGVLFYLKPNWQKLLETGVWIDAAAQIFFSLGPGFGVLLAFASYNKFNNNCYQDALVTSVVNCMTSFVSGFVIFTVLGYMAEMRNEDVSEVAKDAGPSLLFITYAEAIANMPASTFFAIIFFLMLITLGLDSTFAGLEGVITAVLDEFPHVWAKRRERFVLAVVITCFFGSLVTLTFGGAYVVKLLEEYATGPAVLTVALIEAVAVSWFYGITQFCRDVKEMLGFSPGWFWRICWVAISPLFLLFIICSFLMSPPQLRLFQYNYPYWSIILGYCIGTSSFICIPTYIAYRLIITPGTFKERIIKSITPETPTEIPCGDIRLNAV
T5 sequence (Q01959 whole entry): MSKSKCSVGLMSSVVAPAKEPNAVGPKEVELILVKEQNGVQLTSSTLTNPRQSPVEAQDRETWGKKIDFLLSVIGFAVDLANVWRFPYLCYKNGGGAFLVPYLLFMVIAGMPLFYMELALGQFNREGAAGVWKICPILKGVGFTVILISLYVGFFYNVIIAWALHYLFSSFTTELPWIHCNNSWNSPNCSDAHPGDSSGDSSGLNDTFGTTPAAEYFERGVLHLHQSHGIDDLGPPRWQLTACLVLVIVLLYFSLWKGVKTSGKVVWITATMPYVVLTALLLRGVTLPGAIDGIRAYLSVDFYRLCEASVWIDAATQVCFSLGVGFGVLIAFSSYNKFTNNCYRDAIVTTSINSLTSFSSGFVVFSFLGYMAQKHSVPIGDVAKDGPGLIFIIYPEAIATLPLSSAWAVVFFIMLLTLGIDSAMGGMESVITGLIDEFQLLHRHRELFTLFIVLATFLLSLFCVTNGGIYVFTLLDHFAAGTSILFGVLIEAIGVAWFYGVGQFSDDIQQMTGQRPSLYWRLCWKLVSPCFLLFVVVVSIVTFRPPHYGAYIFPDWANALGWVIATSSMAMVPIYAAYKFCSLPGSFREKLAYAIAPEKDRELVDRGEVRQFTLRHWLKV
T1 sequence (P20309 whole entry): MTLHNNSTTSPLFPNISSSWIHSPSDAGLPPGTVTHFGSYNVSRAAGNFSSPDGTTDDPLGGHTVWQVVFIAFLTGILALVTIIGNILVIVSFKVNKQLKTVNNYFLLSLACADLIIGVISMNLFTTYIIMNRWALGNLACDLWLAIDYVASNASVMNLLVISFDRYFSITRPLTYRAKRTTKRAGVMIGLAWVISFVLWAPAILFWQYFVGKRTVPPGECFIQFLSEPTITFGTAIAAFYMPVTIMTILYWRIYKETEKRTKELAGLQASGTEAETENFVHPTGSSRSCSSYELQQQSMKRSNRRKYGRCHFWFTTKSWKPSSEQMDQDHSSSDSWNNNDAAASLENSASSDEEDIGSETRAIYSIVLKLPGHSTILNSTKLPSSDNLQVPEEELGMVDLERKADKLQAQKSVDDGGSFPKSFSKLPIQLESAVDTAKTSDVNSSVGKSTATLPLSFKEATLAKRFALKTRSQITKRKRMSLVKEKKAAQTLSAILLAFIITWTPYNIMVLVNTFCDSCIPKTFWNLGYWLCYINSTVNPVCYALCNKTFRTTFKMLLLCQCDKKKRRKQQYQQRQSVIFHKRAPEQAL
T3 sequence (P23975 whole entry): as the sequence (P23975 whole entry) above

Usually IC50 stands for the point on the concentration scale where inhibition reaches its midpoint. A lower IC50 goes with higher potency. Take `CCCCC(C(=O)c1ccccc1)N1CCCCC1` (stereo not drawn) [Compound (1), 1-phenyl-2-(piperidin-1-yl)hexan-1-one]: the Ki was 994 nM on human M3R (setting [4]); 1010 nM on human M1R (setting [5]); 0.679 µM on human M5R; 0.038 µM on Dopamine transporter (h); 6.5 µM in assay [3]. For the same molecule, in assay [1], the locomotor activity result was “nearly indistinguishable from vehicle-treated mice”. The IC50 in assay [2] was 1.3 µM; on Dopamine transporter (h) it was 0.072 µM; in assay [3] it was 8.7 µM; at 5-HT transporter (h), more than 100 µM. In addition, the figures for the nH (at Dopamine transporter (h); in assay [3]) were 1 and 1.6, respectively. The “Affinity (Ki) SERT” value at 5-HT transporter (h) is given as “neither compound exhibiting demonstrable binding at SERT”; on 5-HT transporter (h) (listed as Compound 1), “N.B”.
In the case of `CCCCC(C(=O)c1ccccc1)N1CCCCCC1` (stereo not drawn) [Compound (2), 2-(azepan-1-yl)-1-phenylhexan-1-one], the Ki is 988 nM on human M3R (setting [4]); 1490 nM at human M1R (setting [5]); 1.03 µM at human M5R; 0.054 µM at Dopamine transporter (h); 9.8 µM in assay [3]. In addition, the IC50 in assay [2] is 1.1 µM; at Dopamine transporter (h) it was 0.1 µM; in assay [3], 13 µM; at 5-HT transporter (h) it was more than 100 µM. Moreover, the nH (at Dopamine transporter (h); in assay [3]) was 0.9 throughout. For the same molecule, the “Affinity (Ki) SERT” value at 5-HT transporter (h) is “neither compound exhibiting demonstrable binding at SERT”; at 5-HT transporter (h) (listed as Compound 2), “N.B”.
Regarding `CCCCC(C(=O)c1ccccc1)N1CCCC1` (stereo not drawn) [α-PHP, 1-phenyl-2-(pyrrolidin-1-yl)hexan-1-one], the Ki was 1660 nM on human M3R (estimate from 1 and 10 μM concentrations (N = 2), N.C. = <5% displacement of radioligand at 10 μM, read-out: estimated pKi at M3R (converted)); 2570 nM on human M1R (estimate from 1 and 10 μM concentrations (N = 2), N.C. = <5% displacement of radioligand at 10 μM, read-out: estimated pKi at M1R (converted)); 1580 nM on human M1R (full dose-response [3H]Scopolamine competition binding, α-PPP and α-PBP interpolated, read-out: pKi at M1R (converted)); 1.51 µM at human M5R. At human M1R, the “fold increase in M1R affinity from α-PPP” value is on record as 121 fold. For the same molecule, the locomotor activity result in assay [1] is on record as “robustly increased locomotor activity compared to vehicle”.
